The supplement of paper PMC10627819

How the values were obtained:
Assay in all cases: fitness (endpoint OD595 vs no drug) (fraction); higher = more growth
[1] = system: B. subtilis 168
Method in brief: (§1)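 Fitness was defined as the optical density at the transition into stationary phase relative to the robust mean of no-drug control wells. Values were capped at 1. Cultures were started at OD595 0.01 in 384-well plates (30 µl, or 55 µl for S. pneumoniae) in TSB, LB Lennox or CY at 37 °C. OD595 was recorded every 30 min over 14 h, with the first reading subtracted as background.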

[2] = system: S. aureus DSM 20231
Method in brief: as §1

[3] = system: S. pneumoniae D39V
Method in brief: as §1

CN(C)[C@@H]1C(O)=C(C(N)=O)C(=O)[C@@]2(O)C(O)=C3C(=O)c4c(O)ccc(Cl)c4[C@@](C)(O)[C@H]3C[C@@H]12 [Chlortetracycline] + CC1=C\[C@@H](O)CC(=O)Cc2nc(co2)C(=O)N2CCC=C2C(=O)O[C@H](C(C)C)[C@H](C)/C=C/C(=O)NC\C=C\1 [Virginiamycin M1]
Conditions | fitness
[1], first compound 0.0475 µg/mL, partner 0.0625 µg/mL | 0.874
[1], first compound 0.0475 µg/mL, partner 0.125 µg/mL | 0.898
[1], first compound 0.0475 µg/mL, partner 0.25 µg/mL | 0.87
[1], first compound 0.095 µg/mL, partner 0.0625 µg/mL | 0.823
[1], first compound 0.095 µg/mL, partner 0.125 µg/mL | 0.725
[1], first compound 0.095 µg/mL, partner 0.25 µg/mL | 0.759
[1], first compound 0.19 µg/mL, partner 0.0625 µg/mL | 0.55
[1], first compound 0.19 µg/mL, partner 0.125 µg/mL | 0.547
[1], first compound 0.19 µg/mL, partner 0.25 µg/mL | 0.568
[2], first compound 0.012 µg/mL, partner 0.0625 µg/mL | 0.565
[2], first compound 0.012 µg/mL, partner 0.125 µg/mL | 0.533
[2], first compound 0.012 µg/mL, partner 0.25 µg/mL | 0.567
[2], first compound 0.024 µg/mL, partner 0.0625 µg/mL | 0.191
[2], first compound 0.024 µg/mL, partner 0.125 µg/mL | 0.183
[2], first compound 0.024 µg/mL, partner 0.25 µg/mL | 0.188
[2], first compound 0.048 µg/mL, partner 0.0625 µg/mL | 0.0421
[2], first compound 0.048 µg/mL, partner 0.125 µg/mL | 0.0556
[2], first compound 0.048 µg/mL, partner 0.25 µg/mL | 0.0619
[3], first compound 0.012 µg/mL, partner 2 µg/mL | 0.817
[3], first compound 0.024 µg/mL, partner 2 µg/mL | 0.787
[3], first compound 0.048 µg/mL, partner 2 µg/mL | 0.74
[3], first compound 0.375 µg/mL, partner 0.5 µg/mL | 0.025
[3], first compound 0.375 µg/mL, partner 1 µg/mL | 0.0379
[3], first compound 0.375 µg/mL, partner 2 µg/mL | 0.0569
[3], first compound 0.75 µg/mL, partner 0.5 µg/mL | 0.0422
[3], first compound 0.75 µg/mL, partner 1 µg/mL | 0.0446
[3], first compound 0.75 µg/mL, partner 2 µg/mL | 0.0829
[3], first compound 1.5 µg/mL, partner 0.5 µg/mL | 0.0504
[3], first compound 1.5 µg/mL, partner 1 µg/mL | 0.0561
[3], first compound 1.5 µg/mL, partner 2 µg/mL | 0.0443

fitness, one replicate
Conditions | first compound 0.006 µg/mL | first compound 0.012 µg/mL | first compound 0.024 µg/mL | first compound 0.048 µg/mL
[2], partner 0.0625 µg/mL | 0.776 | – | – | –
[2], partner 0.125 µg/mL | 0.785 | – | – | –
[2], partner 0.25 µg/mL | 0.809 | – | – | –
[2], partner 0.5 µg/mL | – | 0.495 | 0.146 | 0.0554
[2], partner 1 µg/mL | – | 0.462 | 0.284 | 0.263
[3], partner 0.15 µg/mL | – | 0.955 | 0.895 | 0.825
[3], partner 0.3 µg/mL | – | 0.86 | 0.859 | 0.782
[3], partner 0.5 µg/mL | – | 0.889 | 0.89 | 0.848
[3], partner 1 µg/mL | – | 0.88 | 0.845 | 0.761

CN(C)[C@@H]1C(O)=C(C(N)=O)C(=O)[C@@]2(O)C(O)=C3C(=O)c4c(O)ccc(Cl)c4[C@@](C)(O)[C@H]3C[C@@H]12 [Chlortetracycline] + CN[C@@H]1[C@H](O)[C@H](NC)[C@H]2O[C@@]3(O)C(=O)C[C@@H](C)O[C@H]3O[C@@H]2[C@H]1O [Spectinomycin]
fitness
Conditions | partner 2 µg/mL | partner 4 µg/mL | partner 8 µg/mL | partner 16 µg/mL
[1], first compound 0.0475 µg/mL | 0.885 | 0.884 | 0.752 | –
[1], first compound 0.095 µg/mL | 0.803 | 0.806 | 0.691 | –
[1], first compound 0.19 µg/mL | 0.523 | 0.409 | 0.199 | –
[2], first compound 0.012 µg/mL | – | 0.529 | – | 0.494
[2], first compound 0.024 µg/mL | – | 0.203 | – | –
[2], first compound 0.048 µg/mL | – | 0.137 | 0.0943 | 0.05
[3], first compound 0.375 µg/mL | – | 0.0802 | 0.0586 | 0.0693
[3], first compound 0.75 µg/mL | – | 0.0886 | 0.0941 | 0.0722
[3], first compound 1.5 µg/mL | – | 0.0871 | 0.0754 | 0.0779

fitness, one replicate
Conditions | first compound 0.006 µg/mL | first compound 0.012 µg/mL | first compound 0.024 µg/mL | first compound 0.048 µg/mL
[2], partner 4 µg/mL | 0.669 | – | – | –
[2], partner 8 µg/mL | 0.707 | – | – | –
[2], partner 16 µg/mL | 0.655 | – | – | –
[2], partner 32 µg/mL | – | 0.298 | 0.058 | 0.0249
[2], partner 64 µg/mL | – | 0.0229 | 0.0093 | 0.0056
[3], partner 4 µg/mL | – | 0.901 | 0.859 | 0.795
[3], partner 8 µg/mL | – | 0.853 | 0.859 | 0.78

CN(C)[C@@H]1C(O)=C(C(N)=O)C(=O)[C@@]2(O)C(O)=C3C(=O)c4c(O)ccc(Cl)c4[C@@](C)(O)[C@H]3C[C@@H]12 [Chlortetracycline] + Cc1cc(NS(=O)(=O)c2ccc(N)cc2)no1 [Sulfamethoxazol]
fitness, one replicate
Conditions | partner 0.5 µg/mL | partner 1 µg/mL | partner 2 µg/mL | partner 4 µg/mL
[1], first compound 0.0475 µg/mL | 0.905 | – | – | –
[1], first compound 0.095 µg/mL | 0.837 | – | – | –
[1], first compound 0.19 µg/mL | 0.449 | – | – | –
[2], first compound 0.006 µg/mL | – | 0.724 | 0.733 | 0.761
[3], first compound 0.012 µg/mL | – | 0.929 | 0.951 | 0.865
[3], first compound 0.024 µg/mL | – | 0.851 | 0.88 | 0.806
[3], first compound 0.048 µg/mL | – | 0.793 | 0.797 | 0.743

fitness
Conditions | partner 1 µg/mL | partner 2 µg/mL | partner 4 µg/mL
[1], first compound 0.0475 µg/mL | 0.9 | 0.852 | 0.907
[1], first compound 0.095 µg/mL | 0.78 | 0.725 | 0.779
[1], first compound 0.19 µg/mL | 0.548 | 0.527 | 0.5
[2], first compound 0.012 µg/mL | 0.509 | 0.533 | 0.573
[2], first compound 0.024 µg/mL | 0.256 | 0.234 | 0.264
[2], first compound 0.048 µg/mL | 0.0878 | 0.0579 | 0.059
[3], first compound 0.375 µg/mL | 0.0312 | 0.0347 | 0.0394
[3], first compound 0.75 µg/mL | 0.0329 | 0.0284 | 0.0259
[3], first compound 1.5 µg/mL | 0.0307 | 0.0374 | 0.0403

CC(=O)Oc1ccccc1C(=O)O [Acetylsalicylic acid] + CO/N=C(\C(=O)N[C@@H]1C(=O)N2C(C(=O)[O-])=C(C[N+]3(C)CCCC3)CS[C@H]12)c1csc(N)n1 [Cefepime]
fitness
Conditions | first compound 250 µg/mL | first compound 500 µg/mL | first compound 1000 µg/mL
[2], partner 0.125 µg/mL | 0.856 | 0.712 | 0.624
[2], partner 0.25 µg/mL | 0.83 | 0.683 | –
[2], partner 0.5 µg/mL | 0.78 | 0.666 | 0.612
[3], partner 0.007 µg/mL | 0.988 | ≥ 1 | 0.927
[3], partner 0.0078 µg/mL | 0.992 | ≥ 1 | 0.915
[3], partner 0.014 µg/mL | 0.99 | 0.995 | 0.969
[3], partner 0.0155 µg/mL | ≥ 1 | ≥ 1 | 0.898
[3], partner 0.028 µg/mL | 0.927 | 0.896 | 0.865
[3], partner 0.031 µg/mL | 0.964 | ≥ 1 | 0.888
